Reference: ChEMBL document CHEMBL1158727, “Cyclobutane dimers from the Colombian medicinal plant Achyrocline bogotensis” (2005)

What was measured:
Assay type in all cases: functional
PBMC [1] = experiment: Inhibition of LPS-induced TNFalpha production in human PBMC at 0.3 mg/mL after 48 hrs by ELISA
PBMC [2] = experiment: Inhibition of LPS-induced IL12 production in human PBMC at 0.3 mg/mL after 48 hrs by ELISA
PBMC [3] = experiment: Inhibition of LPS-induced IL10 production in human PBMC at 0.3 mg/mL after 48 hrs by ELISA

With `C[C@]12C=CC(=O)C=C1CC[C@@H]1[C@@H]2[C@@H](O)C[C@@]2(C)[C@H]1CC[C@]2(O)C(=O)CO` [PREDNISOLONE] the inhibition at 300 µg/mL (PBMC [1]) was 0.44%, the inhibition at 300 µg/mL (PBMC [2]) was 0.24% and the inhibition at 300 µg/mL (PBMC [3]) was 0.14%.
